The values that follow come from US20080161320A1, “FUSED BICYCLIC PYRIMIDINES AS PTK INHIBITORS CONTAINING A ZINC BINDING MOIETY” (priority 2006, published 2008).

The test system of one assay is HDAC. Kind of assay: HDAC fluorimetric assay kit (AK-500, Biomol), HeLa nuclear extract. The assay is classed as biochemical. On the procedure:
HDAC inhibitors were screened using an HDAC fluorimetric assay kit (AK-500, Biomol, Plymouth Meeting, Pa.). […] Each assay was setup as follows: Defrosted all kit components and kept on ice until use. […] Prepared dilutions of Trichostatin A (TSA, positive control) and tested compounds in assay buffer (5× of final concentration). Diluted Fluor de Lys™ Substrate in assay buffer to 100 uM (50 fold=2× final). Diluted Fluor de Lys™ developer concentrate 20-fold (e.g. 50 μl plus 950 μl Assay Buffer) in cold assay buffer. Second, diluted the 0.2 mM Trichostatin A 100-fold in the 1× Developer (e.g. 10 μl in 1 ml; final Trichostatin A concentration in the 1× Developer=2 μM; final concentration after addition to HDAC/Substrate reaction=1 μM). Added Assay buffer, diluted trichostatin A or test inhibitor to appropriate wells of the microtiter plate. Added diluted HeLa extract or other HDAC sample to all wells except for negative controls.

The next assay deals with T1, human EGFR (Homo sapiens, UniProt P00533).
T1 construct: human EGFR (His672-Ala1210); GST (N); purchased Cell Signaling Technologies; host or cells: baculovirus expression system
Nature of the assay: HTScan Receptor Kinase Assay, EGFR. The assay is classed as biochemical.

Another assay has as its target human VEGFR2 (Homo sapiens, UniProt P35968). Nature of the assay: HTScan Receptor Kinase Assay, VEGFR2.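 Further: recombinant GST-His-tagged human VEGFR2 kinase domain phosphorylating biotinylated gastrin precursor peptide, 30 min at room temperature, phosphotyrosine detected by Europium-labelled antibody time-resolved fluorescence.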
Another assay concerns the target human HER2/ErbB2 (Homo sapiens, UniProt P04626). Kind of assay: HTScan Receptor Kinase Assay, HER2/ErbB2.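 Further: europium time-resolved fluorescence detection of anti-phosphotyrosine antibody binding to biotinylated FLT3 (Tyr589) peptide phosphorylated by the kinase, 30 min reaction at room temperature.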

SMILES strings stand for the structures.

Sequence of human HER2/ErbB2 (P04626 676-1255): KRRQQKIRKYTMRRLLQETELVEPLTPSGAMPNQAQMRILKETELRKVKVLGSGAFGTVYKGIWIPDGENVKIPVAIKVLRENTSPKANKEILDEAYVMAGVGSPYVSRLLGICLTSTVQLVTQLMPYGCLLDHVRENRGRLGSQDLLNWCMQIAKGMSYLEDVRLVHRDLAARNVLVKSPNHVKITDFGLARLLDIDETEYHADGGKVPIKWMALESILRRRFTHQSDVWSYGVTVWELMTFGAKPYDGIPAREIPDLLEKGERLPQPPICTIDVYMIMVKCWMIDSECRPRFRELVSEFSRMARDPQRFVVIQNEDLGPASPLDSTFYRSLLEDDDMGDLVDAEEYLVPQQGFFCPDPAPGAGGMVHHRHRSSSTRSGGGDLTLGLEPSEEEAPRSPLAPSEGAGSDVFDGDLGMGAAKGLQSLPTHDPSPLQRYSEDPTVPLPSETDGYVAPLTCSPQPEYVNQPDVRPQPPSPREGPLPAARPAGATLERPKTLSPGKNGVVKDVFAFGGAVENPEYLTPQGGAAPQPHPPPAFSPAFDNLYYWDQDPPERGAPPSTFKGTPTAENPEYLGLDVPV
T1 sequence (P00533 672-1210): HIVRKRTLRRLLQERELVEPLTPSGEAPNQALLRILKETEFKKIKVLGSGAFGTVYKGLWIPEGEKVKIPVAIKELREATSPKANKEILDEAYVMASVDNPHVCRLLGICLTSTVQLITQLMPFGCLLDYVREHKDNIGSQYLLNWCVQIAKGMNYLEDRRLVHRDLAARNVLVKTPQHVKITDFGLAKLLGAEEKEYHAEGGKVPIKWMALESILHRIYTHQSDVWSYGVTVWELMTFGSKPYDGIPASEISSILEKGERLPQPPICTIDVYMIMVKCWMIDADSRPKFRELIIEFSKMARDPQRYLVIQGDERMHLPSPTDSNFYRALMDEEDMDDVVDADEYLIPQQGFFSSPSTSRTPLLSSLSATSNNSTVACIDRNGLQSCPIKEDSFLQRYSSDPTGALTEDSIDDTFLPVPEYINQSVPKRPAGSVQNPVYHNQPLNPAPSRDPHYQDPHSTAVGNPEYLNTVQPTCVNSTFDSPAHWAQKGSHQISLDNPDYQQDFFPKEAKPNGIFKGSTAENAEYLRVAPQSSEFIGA
Sequence of human VEGFR2 (P35968 807-1356 limits assumed): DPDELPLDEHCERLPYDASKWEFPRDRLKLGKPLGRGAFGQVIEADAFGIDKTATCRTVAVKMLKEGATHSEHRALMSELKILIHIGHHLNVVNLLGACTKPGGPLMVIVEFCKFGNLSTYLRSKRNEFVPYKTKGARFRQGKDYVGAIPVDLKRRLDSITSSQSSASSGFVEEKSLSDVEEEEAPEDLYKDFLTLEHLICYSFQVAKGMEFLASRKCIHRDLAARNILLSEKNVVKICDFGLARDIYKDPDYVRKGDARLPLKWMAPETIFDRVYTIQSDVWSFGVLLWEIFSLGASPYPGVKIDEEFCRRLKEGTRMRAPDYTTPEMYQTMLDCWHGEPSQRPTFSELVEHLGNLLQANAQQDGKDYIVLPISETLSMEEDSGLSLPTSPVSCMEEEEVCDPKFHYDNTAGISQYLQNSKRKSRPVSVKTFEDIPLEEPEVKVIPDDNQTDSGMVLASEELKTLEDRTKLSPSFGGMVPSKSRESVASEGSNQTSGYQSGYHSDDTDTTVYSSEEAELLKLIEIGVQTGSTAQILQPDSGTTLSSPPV
Experimental for human HER2/ErbB2: (§1) The ability of compounds to inhibit receptor kinase (EGFR, HER2/ErbB2, and VEGFR2) activity was assayed using HTScan™ Receptor Kinase Assay Kits (Cell Signaling Technologies, Danvers, Mass.). […] VEGFR2 tyrosine kinase was produced using a baculovirus expression system from a construct containing a human VEGFR2 cDNA kinase domain (Asp805-Val1356) (GenBank accession No. AF035121) fragment amino-terminally fused to a GST-HIS6-Thrombin cleavage site. The proteins were purified by one-step affinity chromatography using glutathione-agarose. An anti-phosphotyrosine monoclonal antibody, P-Tyr-100, was used to detect phosphorylation of biotinylated substrate peptides (EGFR, Biotin-PTP1B (Tyr66); HER2/ErbB2, Biotinylated FLT3 (Tyr589); VEGFR2, Biotin-Gastrin Precursor (Tyr87).). […] Fluorescence was measured on a WALLAC Victor 2 plate reader and reported as relative fluorescence units (RFU). Data were plotted using GraphPad Prism (v4.0a) and IC50's calculated using a sigmoidal dose response curve fitting algorithm.
(§2) Each assay was setup as follows: Added 100 μl of 10 mM ATP to 1.25 ml 6 mM substrate peptide. Diluted the mixture with dH20 to 2.5 ml to make 2×ATP/substrate cocktail ([ATP]=400 mM, [substrate]=3 mM). Immediately transfer enzyme from −80° C. to ice. Allowed enzyme to thaw on ice. Microcentrifuged briefly at 4° C. to bring liquid to the bottom of the vial. Returned immediately to ice. […] Transfer 1.25 ml of DTT/Kinase buffer to enzyme tube to make 4× reaction cocktail ([enzyme]=4 ng/μL in 4× reaction cocktail). […] Incubated reaction plate at room temperature for 30 minutes. Added 50 μl/well Stop Buffer (50 mM EDTA, pH 8) to stop the reaction. Transferred 25 μl of each reaction and 75 μl dH2O/well to a 96-well streptavidin-coated plate and incubated at room temperature for 60 minutes. Washed three times with 200 μl/well PBS/T (PBS, 0.05% Tween-20). […] Added 100 μl/well primary antibody. Incubated at room temperature for 60 minutes. Washed three times with 200 μl/well PBS/T. Diluted Europium labeled anti-mouse IgG 1:500 in PBS/T with 1% BSA. Added 100 μl/well diluted antibody. Incubated at room temperature for 30 minutes. Washed five times with 200 μl/well PBS/T. Added 100 μl/well DELFIA® Enhancement Solution. Incubated at room temperature for 5 minutes.
Experimental for human VEGFR2: as §1, §2

Regarding `C[C@@H](Nc1ncnc2[nH]c(-c3ccc(NC(=O)CCC(=O)NO)cc3)cc12)c1ccccc1` [Compound 24, (R) —N^1-Hydroxy-N^4-(4-(4-(1-phenylethylamino)-7H-pyrrolo[2,3-d]pyrimidin-6-yl)phenyl)succinamide], the 50% inhibitory concentration (IC50) was above 10000 nM in the assay with HDAC, below 100 nM against human EGFR, 100 to 1000 nM against human VEGFR2 and 100 to 1000 nM on human HER2/ErbB2.
With `C[C@@H](Nc1ncnc2[nH]c(-c3ccc(C(=O)NCCNCCCCCCC(=O)NO)cc3)cc12)c1ccccc1` [Compound 31, (R)—N-(2-(7-(Hydroxyamino)-7-oxoheptylamino)ethyl)-4-(4-(1-phenylethylamino)-7H-pyrrolo[2,3-d]pyrimidin-6-yl)benzamide], the IC50 was below 100 nM with HDAC, below 100 nM against human EGFR, 100 to 1000 nM against human VEGFR2 and 100 to 1000 nM at human HER2/ErbB2.
As to `C[C@@H](Nc1ncnc2[nH]c(-c3ccc(C(=O)NCCNCCCCCC(=O)NO)cc3)cc12)c1ccccc1` [Compound 30, (R)—N-(2-(6-(Hydroxyamino)-6-oxohexylamino)ethyl)-4-(4-(1-phenylethylamino)-7H-pyrrolo[2,3-d]pyrimidin-6-yl)benzamide], the IC50 with HDAC was 100 to 1000 nM; against human EGFR, below 100 nM; on human VEGFR2 it was 100 to 1000 nM; on human HER2/ErbB2, 100 to 1000 nM.
As to `C[C@@H](Nc1ncnc2[nH]c(-c3ccc(CNCCCCCC(=O)NO)cc3)cc12)c1ccccc1` [Compound 32, (R)—N-hydroxy-6-(4-(4-(1-phenylethylamino)-7H-pyrrolo[2,3-d]pyrimidin-6-yl)benzylamino)hexanamide], the IC50 in the assay with HDAC was 100 to 1000 nM; at human EGFR, below 100 nM; against human VEGFR2, 100 to 1000 nM; against human HER2/ErbB2 it was 100 to 1000 nM.
`C[C@@H](Nc1ncnc2[nH]c(-c3ccc(OCCNCCCCCCC(=O)NO)cc3)cc12)c1ccccc1` [Compound 60, (R)—N-hydroxy-7-(2-(4-(4-(1-phenylethylamino)-7H-pyrrolo[2,3-d]pyrimidin-6-yl)phenoxy)ethylamino)heptanamide]: the IC50 was 100 to 1000 nM in the assay with HDAC, below 100 nM against human EGFR, below 100 nM against human VEGFR2 and below 100 nM against human HER2/ErbB2.
For `O=C(CCCCCN1CCN(Cc2ccc(-c3cc4c(NCc5ccccc5)ncnc4[nH]3)cc2)CC1)NO` [Compound 36], the IC50 with HDAC, at human EGFR, on human VEGFR2 and against human HER2/ErbB2 was 100 to 1000 nM throughout.
Turning to `C[C@@H](Nc1ncnc2[nH]c(-c3ccc(OCCCC(=O)NO)cc3)cc12)c1ccccc1` [Compound 19, (R)—N-Hydroxy-4-(4-(4-(1-phenylethylamino)-7H-pyrrolo[2,3-d]pyrimidin-6-yl)phenoxy)propanamide], the IC50 was 100 to 1000 nM with HDAC, below 100 nM on human EGFR, 100 to 1000 nM against human VEGFR2 and 100 to 1000 nM on human HER2/ErbB2.
As for `C[C@@H](Nc1ncnc2[nH]c(-c3ccc(NCc4ccc(C(=O)NO)cc4)cc3)cc12)c1ccccc1` [Compound 43, (R)—N-Hydroxy-4-((4-(4-(1-phenylethylamino)-7H-pyrrolo[2,3-d]pyrimidin-6-yl)phenylamino)methyl)benzamide], the IC50 in the assay with HDAC is 100 to 1000 nM; against human EGFR, below 100 nM; on human VEGFR2 it was 1000 to 10000 nM; against human HER2/ErbB2 it was 100 to 1000 nM.
For `C[C@@H](Nc1ncnc2[nH]c(-c3ccc(OCCCCCCC(=O)NO)cc3)cc12)c1ccc(F)cc1` [Compound 37], the IC50 was below 100 nM in the assay on HDAC, 100 to 1000 nM at human EGFR, 1000 to 10000 nM against human VEGFR2 and 100 to 1000 nM on human HER2/ErbB2.
Regarding `C[C@@H](Nc1ncnc2[nH]c(-c3ccc(NCCCCCCC(=O)NO)cc3)cc12)c1ccccc1` [Compound 67, (R)—N-hydroxy-7-(4-(4-(1-phenylethylamino)-7H-pyrrolo[2,3-d]pyrimidin-6-yl)phenylamino)heptanamide], the IC50 was below 100 nM in the assay with HDAC, below 100 nM against human EGFR, 100 to 1000 nM against human VEGFR2 and below 100 nM against human HER2/ErbB2.
On to `C[C@@H](Nc1ncnc2[nH]c(-c3ccc(C(=O)NCCNCCC(=O)NO)cc3)cc12)c1ccccc1` [Compound 29, (R)—N-(2-(3-(Hydroxyamino)-3-oxopropylamino)ethyl)-4-(4-(1-phenylethylamino)-7H-pyrrolo[2,3-d]pyrimidin-6-yl)benzamide], for which the IC50 in the assay on HDAC was below 100 nM; against human EGFR it was below 100 nM; against human VEGFR2 it was 100 to 1000 nM; against human HER2/ErbB2, 100 to 1000 nM.
For `C[C@@H](Nc1ncnc2[nH]c(-c3ccc(OCCCCCC(=O)NO)cc3)cc12)c1ccccc1` [Compound 21, (R)—N-hydroxy-6-(4-(4-(1-phenylethylamino)-7H-pyrrolo[2,3-d]pyrimidin-6-yl)phenoxy)hexanamide], the IC50 with HDAC is below 100 nM; against human EGFR, below 100 nM; on human VEGFR2 it was 1000 to 10000 nM; at human HER2/ErbB2 it was 100 to 1000 nM.
For `C[C@@H](Nc1ncnc2[nH]c(-c3ccc(OCCCCC(=O)NO)cc3)cc12)c1ccccc1` [Compound 20, (R)—N-Hydroxy-5-(4-(4-(1-phenylethylamino)-7H-pyrrolo[2,3-d]pyrimidin-6-yl)phenoxy)pentanamide], the IC50 is 100 to 1000 nM in the assay with HDAC, below 100 nM against human EGFR, 100 to 1000 nM at human VEGFR2 and 100 to 1000 nM at human HER2/ErbB2.
Take `C[C@@H](Nc1ncnc2[nH]c(-c3ccc(NCc4ccc(/C=C/C(=O)NO)cc4)cc3)cc12)c1ccccc1` [Compound 42, (R,E)-N-Hydroxy-3-(4-((4-(4-(1-phenylethylamino)-7H-pyrrolo[2,3-d]pyrimidin-6-yl)phenylamino)methyl)phenyl)acrylamide]: the half-maximal inhibitory concentration (IC50) in the assay on HDAC was 100 to 1000 nM; on human EGFR it was below 100 nM; against human VEGFR2, 1000 to 10000 nM; on human HER2/ErbB2, 1000 to 10000 nM.
Consider `O=C(CCCCCCOc1ccc(-c2cc3c(NCc4ccccc4)ncnc3[nH]2)cc1)NO` [Compound 38, 7-(4-(4-(benzylamino)-7H-pyrrolo[2,3-d]pyrimidin-6-yl)phenoxy)-N-hydroxyheptanamide], for which the IC50 was below 100 nM in the assay with HDAC, 100 to 1000 nM at human EGFR, 1000 to 10000 nM against human VEGFR2 and 1000 to 10000 nM on human HER2/ErbB2.
Regarding `O=C(NO)c1ccc(-c2cc3c(NCc4ccccc4)ncnc3[nH]2)cc1` [Compound 40], the IC50 in the assay on HDAC was 100 to 1000 nM; against human EGFR, below 100 nM; on human VEGFR2, 1000 to 10000 nM; against human HER2/ErbB2, 100 to 1000 nM.
Consider `C[C@@H](Nc1ncnc2[nH]c(-c3ccc(NC(=O)CCCCC(=O)NO)cc3)cc12)c1ccccc1` [Compound 26, (R) —N^1-Hydroxy-N^6-(4-(4-(1-phenylethylamino)-7H-pyrrolo[2,3-d]pyrimidin-6-yl)phenyl)adipamide], for which the IC50 in the assay on HDAC was below 100 nM; against human EGFR, below 100 nM; at human VEGFR2 it was 100 to 1000 nM; at human HER2/ErbB2, 100 to 1000 nM.
Consider `C[C@@H](Nc1ncnc2[nH]c(-c3ccc(CN4CCN(CCC(=O)NO)CC4)cc3)cc12)c1ccccc1` [Compound 12, (R)—N-Hydroxy-3-(4-(4-(4-(1-phenylethylamino)-7H-pyrrolo[2,3-d]pyrimidin-6-yl)benzyl)piperazin-1-yl)propanamide], for which the IC50 in the assay with HDAC is above 10000 nM; against human EGFR, below 100 nM; on human VEGFR2, 100 to 1000 nM; against human HER2/ErbB2, below 100 nM.
For `C[C@@H](Nc1ncnc2[nH]c(-c3ccc(CN4CCN(CCCCC(=O)NO)CC4)cc3)cc12)c1ccccc1` [Compound 14, (R)—N-Hydroxy-5-(4-(4-(4-(1-phenylethylamino)-7H-pyrrolo[2,3-d]pyrimidin-6-yl)benzyl)piperazin-1-yl)pentanamide], the IC50 in the assay with HDAC was 1000 to 10000 nM; against human EGFR it was below 100 nM; on human VEGFR2, 100 to 1000 nM; against human HER2/ErbB2, 100 to 1000 nM.
On to `C[C@@H](Nc1ncnc2[nH]c(-c3ccc(CN4CCN(CC(=O)NO)CC4)cc3)cc12)c1ccccc1` [Compound 11, (R)—N-Hydroxy-2-(4-(4-(4-(1-phenylethylamino)-7H-pyrrolo[2,3-d]pyrimidin-6-yl)benzyl)piperazin-1-yl)acetamide], for which the IC50 in the assay on HDAC is above 10000 nM; at human EGFR it was below 100 nM; against human VEGFR2 it was below 100 nM; on human HER2/ErbB2, below 100 nM.
`C[C@@H](Nc1ncnc2[nH]c(-c3ccc(NC(=O)CCCCCCC(=O)NO)cc3)cc12)c1ccccc1` [Compound 27, (R)—N^1-Hydroxy-N^8-(4-(4-(1-phenylethylamino)-7H-pyrrolo[2,3-d]pyrimidin-6-yl)phenyl)octanediamide]: the IC50 in the assay with HDAC is below 100 nM; against human EGFR, below 100 nM; on human VEGFR2 it was 100 to 1000 nM; on human HER2/ErbB2 it was 100 to 1000 nM.
As to `C[C@@H](Nc1ncnc2[nH]c(-c3ccc(NC(=O)CCCC(=O)NO)cc3)cc12)c1ccccc1` [Compound 25, (R)—N^1-Hydroxy-N^5-(4-(4-(1-phenylethylamino)-7H-pyrrolo[2,3-d]pyrimidin-6-yl)phenyl)glutaramide], the IC50 in the assay on HDAC was 100 to 1000 nM; at human EGFR it was below 100 nM; against human VEGFR2, 100 to 1000 nM; against human HER2/ErbB2, 100 to 1000 nM.
